From US12478693B2, “Compositions and methods for detection of traumatic brain injury” (Amydis, Inc., priority 2018, dated 2025)
“Also recorded” adds a separate entry of the source.

What was measured:
Type in all cases: binding
Aβ deposits in retina = target: T1, Aβ deposits in retina (Mus musculus, UniProt P12023); test: Ex vivo detection of retinal Aβ aggregation in CCI mouse model (Example 4)
T1 construct: denotes peptides of about 36 to 43 amino acids; from tissue; host or cells: mouse retina dissected 24 h after CCI
Method: Mice were subjected to a controlled cortical impact (CCI). The CCI model applies a controlled impact to the intact dura after a craniotomy and is a commonly used TBI animal model. Mice were anesthetized, the head was mounted in a stereotaxic frame, and a craniotomy was performed over the right side of the frontal cortex. Using a stereotaxic impactor, mice received an impact on the right side of the frontal cortex using a 3 m/s velocity, 1 mm depth, and 3 mm diameter piston. After injury, the incision was closed with staples, anesthesia was terminated, and the animal was placed in a heated cage to maintain normal core temperature.
Sham injury consisted of exposure to anesthesia, stereotaxic mounting, skin and fascia reflection, and closing of incision with staples. Mice were then euthanized 24 hours after injury and retinal tissue were dissected for further analysis.
Retina from mice were extracted and stained with Compound 1 along with a 6E10 antibody, a sequence specific antibody for Aβ.
Mice were subjected to a controlled cortical impact (CCI). The CCI model applies a controlled impact to the intact dura after a craniotomy and is a commonly used TBI animal model. Mice were anesthetized, the head was mounted in a stereotaxic frame, and a craniotomy was performed over the right side of the frontal cortex. […]

[1] = test system: amyloid-beta (Aβ) deposits in human retinal tissue; test: Ex vivo fluorescence staining of post-mortem human retina with ASF probe; conditions: AD and cognitively normal patients, listed as ASF
Method: Post-mortem retinal tissue and brains of humans with confirmed or probable Alzheimer's disease (AD) were obtained and examined by staining amyloid-beta (A3) with a test amyloid sensitive fluorescent probe (ASF), Compound 1. This example was conducted to determine if the ASF could identify patients with amyloid burden in the brain through fluorescence inspection of retinas stained with the ASF.
While this example could observe these deposits in both AD (panels A-B) and cognitively normal patients (panels C-D), there is a qualitative correlation between the density of these deposits in the retina and the degree of amyloidosis in the brain (as estimated by immunohistochemistry (IHC) with anti-Aβ antibodies).
IHC staining of retinal cryosections provided further evidence for the existence of Aβ in retinal deposits with similar location, size, and morphology as the deposits found in retinal flat mounts stained with the ASF.

[2] = test system: amyloid beta in brain tissue; test: Staining of brain tissue of TBI blast mouse model
Excerpt: Based on this evidence, this example further attempted to confirm that […] was also detected in the brain tissue of the same TBI blast mouse model. […] The evidence of Aβ in the brain tissue complements what was found in the retinal tissue of the same injured mouse. It also supports previous studies of the correlation between the brain and retina in the accumulation of Aβ.

[3] = test system: amyloid beta in retinal tissue; test: Staining of retinal tissue of TBI blast mouse model; conditions: for fluorescent labelling of retinal Aβ deposits: blast mouse model, 24 hours after injury; for fluorescent labelling of retinal tissue: non-injured (normal) mouse
Method: This example was conducted to determine whether the ASF Compound 1 could detect AR in the retina of a TBI mouse model after injury.
Retinal tissue of a blast mouse model 24 hours after injury and a non-injured mouse were stained with the ASF and co-stained with an […] (6E10).

[4] = test system: aggregated proteins in retina; test: Retina staining after controlled cortical impact (Example 3); conditions: 3 month old C5BL/6 mice, 24 h after CCI
Excerpt: 3 month old C5BL/6 mice were briefly anesthetized with isoflurane and placed in a stereotaxic frame. Mice were subjected to craniotomy over the right primary and secondary motor cortex and parietal-temporal cortex (+1 to −4 anterior-posterior from the bregma, 4 mm laterally from the sagittal suture). Half of the mice were not further injured to use as control specimen. For the remaining mice a 3 mm diameter piston was centered over the motor cortex approximately +0.5 to −2.5 mm from the bregma and 3 mm lateral to the sagittal suture. Using a stereotaxic impactor (Impact One, myNeuroLab.com), the piston was accelerated at a speed of 3 m/sec to an impact depth of 1 mm below the cortical surface. After 24 h, mice were euthanized and brain and eyes were collected. Retinas were extracted, stained with DAPI, Compound 1, and 6E10 antibody, and compared.
Retinas were mounted on slides and washed with phosphate-buffered saline (PBS) two times for five minutes each time. Retinas were exposed to 98% formic acid for one minute then washed two times with distilled water for five minutes each time. The retinas were then equilibrated in 1×PBS for 15 minutes. Retinas were exposed to 10% goat/donkey serum in 1× phosphate-buffered saline with Tween® 20 (PBST) for 1 h. Retinas were then incubated with […] in 10% goat serum in 1×PBST at 4° C. overnight. […]

T1 sequence (P12023 672-713 limits assumed): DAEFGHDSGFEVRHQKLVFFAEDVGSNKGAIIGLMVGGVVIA

COCCOCCOCCNC(=O)/C(C#N)=C/c1ccc2cc(N3CCCCC3)ccc2c1 [Compound 1, (E)-2-cyano-N-(2-(2-(2-methoxyethoxy)ethoxy)ethyl)-3-(6-(piperidin-1l-yl)naphthalen-2-yl)acrylamide]
fluorescent labelling of retinal Aβ deposits (Aβ deposits in retina; mice that received a CCI, 24 hours after injury, retina ex vivo): fluorescently labeled these deposits and co-localized with 6E10 immunoreactivity
fluorescence enhancement in retina (Aβ deposits in retina; uninjured (sham) mouse): did not display any fluorescence enhancement
fluorescent visualization / binding of amyloid deposits in flat mounted retina [1]: dense deposits that were 5-10 μm in diameter could be fluorescently visualized; also recorded: capable of binding to amyloid deposits in ex vivo human retinal tissue
fluorescent labelling of amyloid beta in brain tissue ([2]; TBI blast mouse model): fluoresces amyloid beta in brain tissue of TBI blast mouse model
fluorescent labelling of brain tissue ([2]; normal mouse): No visible fluorescence in normal mouse
fluorescent labelling of retinal Aβ deposits [3]: fluoresces amyloid beta in retinal tissue of TBI blast mouse model; also recorded: has the ability to detect retinal amyloids present in a TBI mouse model
fluorescent labelling of retinal Aβ deposits ([3]; listed as ASF): fluorescently labels these retinal deposits
fluorescent labelling of retinal tissue [3]: No visible fluorescence in normal mouse
fluorescent labelling of retinal tissue ([3]; listed as ASF): does not display any fluorescent enhancement
detection of deposited aggregated proteins in retina [4]: detected; also recorded: colocalized
